In US20030232102A1, “Total glycosides of paeony, method to prepare the same and uses thereof” (priority 2001, published 2003):
Where two headings read alike, the source gives them in different places.

Key:
[1] = tested on: Wistar rats, Model of Arthritis (BCG vaccine); experiment: Primary inflammation: degree of swelling of injected feet, BCG vaccine arthritis model; type: in vivo
Procedure: (§1) Animal: Wistar rats, 2-3 months, 180±30 g.
(§2) Chemical agents: Paeoniflorin R1, Lobenzarit disodium (CCA), Indomethacin (IM), and BCG vaccine
(§3) Model of Arthritis: inject 0.1 ml of 10 mg BCG vaccine to the right hind foot, bottom side, intracutaneously.
Primary inflammation: Degree of swelling of injected feet (primary inflammation): oral treatment was given 30 minutes before the inflammatory injection (BCG vaccine). The degree of swelling was measured 1, 3, 5, and 7 days after the injection.
Oral administration of Paeoniflorin R1 30˜60 minutes before inflammatory injection.
TGP's influence on degree of swelling of injected feet (primary inflammation)

[2] = tested on: Wistar rats, Model of Arthritis (BCG vaccine); experiment: Secondary inflammation: swelling of opposite non-injected feet and thymus weight, BCG vaccine arthritis model; type: in vivo; details: for Degree of Swelling Day 12 / Degree of Swelling Day 16 / Degree of Swelling Day 20 / Degree of Swelling Day 24 / Degree of Swelling Day 28: non-injected feet
Procedure: as §1, §2, §3
Secondary inflammation: Swelling degree of the opposite non-injected feet (secondary inflammation): oral treatment was given 12-28 days after the inflammatory injection. The degree of swelling was measured 12, 16, 20, 24 and 28 days after the injection.
Groups of animals for secondary inflammation: 6 groups, each contains 6 rats, groups are: 1) Normal control, receive no inflammatory injection and any pre treatment; 2) Negative control, receive inflammatory injection and no treatment; 3) Positive control, receive inflammatory injection and CCA treatment; 4) Paeoniflorin R1 groups (5, 25, 50 mg/kg/d) oral administration of Paeoniflorin R1 30˜60 minutes before inflammatory injection.
TGP's influence on degree of swelling of opposite, non-injected feet (secondary inflammation)

[3] = tested on: abdominal cavity macrophage; experiment: H2O2, IL-1 and PGE2 produced by abdominal cavity macrophage of arthritis rats (Paeoniflorin R1); type: in vivo; details: 25 mg/kg from 7 days after inflammatory injection, sacrificed day 17; FIG. 44
Procedure: Amount of H2O2, IL-1, and PGE2 produced by abdominal cavity macrophage: Use 5 rats in each group, paeoniflorin R1 (25 mg/kg) treatment starts 7 days after inflammatory injection, animal sacrificed on day 17.

[4] = tested on: sub-group T cell in peripheral circulation; experiment: Sub-group T cell (Th/Ts) in peripheral circulation of arthritis rats (Paeoniflorin R1); type: in vivo; details: 25 mg/kg from 18 days after inflammatory injection, sacrificed day 26; P<0.01; FIG. 45
Procedure: Sub-Group T Cell in Peripheral Circulation
Paeoniflorin R1 treatment (25 mg/kg) started at 18 days after inflammatory injection, animal sacrificed on day 26.

[5] = tested on: abdominal cavity macrophage; experiment: Kinemics of abdominal cavity macrophage PGE2 release in arthritis rats (Paeoniflorin R1); type: in vivo; details: treatment from 1st day after inflammatory injection, sacrificed day 7, 14, 21, 28; FIG. 46
Excerpt: Kinemics in Abdominal Cavity Macrophage Release PGE2
Paeoniflorin R1 treatment started the 1st day after inflammatory injection, animal sacrificed on day 7, 14, 21, and 28.

[6] = tested on: synovial cells; experiment: IL-1, TNF and PGE2 produced by synovial cells of arthritis rats (Paeoniflorin R1); type: in vivo; details: 25 mg/kg from 12 days after inflammatory injection, sacrificed day 22; P<0.01
Procedure: IL-1, TNF, and PGE2 Produced by Synovial Cells
Paeoniflorin R1 treatment (25 mg/kg) started at 12 days after inflammatory injection, animal sacrificed on day 22.

[7] = tested on: histidine-requiring salmonell typhimurrium mutants TA 97, TA 98, Ta 100 and TA 102; details: +S9, 2-AF 10 μg/plate
Procedure: That was a parallel test between two groups of plates with or without the mixture of S9.
Each course was to be performed twice for three plates of different concentrations. Positive indicators and solvent control were included within all courses. Courses were performed with a ‘pre-incubation’ method, and the final result comes out in average from total six values.

[8] = tested on: Sprage-Dawley (SD) rats, adjuvant arthritis; experiment: Adjuvant arthritis in rats (FCA): secondary inflammation, non-injected foot, thymus, pathology; type: in vivo
[9] = tested on: Sprage-Dawley (SD) rats, adjuvant arthritis; experiment: Adjuvant arthritis in rats (FCA): primary inflammation, injected foot; type: in vivo
[10] = tested on: Chinese hamaster lung fibroblast (CHL) cells; type: cell-based
Procedure: TGP, was dissolved in methyl-sulfoxide.
With method of Ishidate (1981), cells were collected in 24 and 48 hours for S9− groups and 24 hours for S9+. All assays were performed twice and their average was taken for final results.

[11] = tested on: ICR mice; experiment: Enhanced delayed type hypersensitivity (DTH) reaction of mice induced by cyclophosphamide; type: in vivo; details: Cy + Solvent, Cy 250 mg/kg i.p. at d-3
Procedure: Cyclophosphamide was administered 3 days before (d-3) the first day sensitization (enhanced DTH model).

[12] = tested on: mice, IgM in the spleen cells; experiment: Weakened IgM formation of mice induced by cyclophosphamide; type: in vivo; details: Cy + solvent, Cy 125 mg/kg i.p. at d-3
Procedure: All groups of mice were sensitized with 0.2 ml 10% SRBC suspension i.p., mice were also administered 125 mg/kg of cyclophosphamide 3 days before the sensitization to make up the models of weakened immunoreactions. […] The mice were killed on the fifth day, organs of spleens and thymus were weighted and quantity of IgM in the spleen cells examined.

[13] = tested on: mice, IgM in the spleen cells; experiment: Enhanced IgM formation of mice induced by cyclophosphamide (spleen cell transfer); type: in vivo; details: group C: donor mice SOI + Cy + solvent, Cy 100 mg/kg i.p.
Excerpt: See table 49 and table 50 for grouping and test procedures: spleen cells of donor mice are transferred to acceptor mice. And, SRBC (4×10^8/mouse i.p.) are given to the acceptor mice for additional immune enhancement. Acceptors are killed on the fifth day of transference and examined for the quantity of IgM in the spleen cells.

[14] = tested on: ICR mice; details: CTX 80 mg/kg
Procedure: ICR mice of sexual maturity, all males. Six random groups with eight mice in each one.
With a gradient of 4:1, the four concentrations were set at 2500 mg/kg, 625 mg/kg, […] and 39 mg/kg.
The drug was administered by gastric injection at the above doses together with the positive indicator (Cytoxan) and the solvent control. The course was repeated after 24 hours and animals were killed six hours after the second administration. Samples were taken and examined.

[15] = tested on: pregnant Wistar rats; experiment: Test of teratogenesis in pregnant rats; type: in vivo; details: 250 mg/kg
Procedure: Ninety pregnant Wistar rats were numbered by their date of fertilization and randomly divided into five groups. The other two were for the control groups.
A positive and a negative control groups were also set up, rats were given acetosalicylic acid (250 mg/kg) in the positive group and distilled water of the same volume in the negative group.
The positive control group was treated with the acetosalicylic acid from day 9 to 11. Both were by gastric injection.
The body weight of rats in all groups was taken once every three days, and the amount of drugs were adjusted individually after the body weight. Rats were killed at day 20 of pregnancy, wombs and embryos were extracted by cesarean section, which was for the study and examination in a traditional way.

[16] = S9+, CP (60.0 μg/ml, 24, by row order of Table 43)

## 2-hydroxy-3 Methyl-Glucoside-4-Oxo-7-Carbonyl-Tricyclo [3,2,2,0^1,2]-Nonanyl-Benzoicmethoxycarbonyl [Paeoniflorin R1]
[1]; 25 mg/kg/d oral
  Degree of Swelling Day 1: 0.59
  Degree of Swelling Day 3: 0.81
  Degree of Swelling Day 5: 0.50
  Degree of Swelling Day 7: 0.40
[2]; 5 mg/kg/d oral
  W. of Thymus Glands: 16.3 mg/kg body W.
  Degree of Swelling Day 12: 0.35
  Degree of Swelling Day 16: 0.42
  Degree of Swelling Day 20: 0.33
  Degree of Swelling Day 24: 0.25
  Degree of Swelling Day 28: 0.26
[2]; 25 mg/kg/d oral
  W. of Thymus Glands: 19.4 mg/kg body W.
  Degree of Swelling Day 12: 0.41±
  Degree of Swelling Day 16: 0.39
  Degree of Swelling Day 20: 0.20
  Degree of Swelling Day 24: 0.15
  Degree of Swelling Day 28: 0.23
[2]; 50 mg/kg/d oral
  W. of Thymus Glands: 13.9 mg/kg body W.
  Degree of Swelling Day 12: 0.40
  Degree of Swelling Day 16: 0.39
  Degree of Swelling Day 20: 0.30
  Degree of Swelling Day 24: 0.27
  Degree of Swelling Day 28: 0.24
[3]
  Amount of H2O2, IL-1, and PGE2 produced by abdominal cavity macrophage: can decrease the above reaction
[4]
  Th/Ts in peripheral circulation: can improve Th/Ts
[5]
  abdominal cavity macrophage PGE2 release: effective in PGE2 release
[6]
  IL-1, TNF, and PGE2 produced by synovial cells (result worded as Th/Ts): can improve Th/Ts

## Nc1ccc2c(c1)Cc1ccccc1-2 [2-AF]
[7]
  reverting colonies, AT 97: 598 ± 27.4
  reverting colonies, AT 98: 974 ± 30.7
  reverting colonies, AT 100: 772 ± 29.8

## O=C(O)c1ccccc1Nc1cc(Cl)ccc1C(=O)O [CCA, Lobenzarit disodium]
[1]; 50 mg/kg/d oral
  Degree of Swelling Day 1: 0.65
  Degree of Swelling Day 3: 0.96
  Degree of Swelling Day 5: 0.68
  Degree of Swelling Day 7: 0.65
[2]; 50 mg/kg/d oral
  W. of Thymus Glands: 14.4 mg/kg body W.
  Degree of Swelling Day 12: 0.40
  Degree of Swelling Day 16: 0.55
  Degree of Swelling Day 20: 0.42
  Degree of Swelling Day 24: 0.14
  Degree of Swelling Day 28: 0.05
[8]; AA rats, gastric infusion d12 through d20
  weight of thymus: the weight of their thymus are gained
[8]; AA rats, gastric infusion d12 through d20, all three doses of TGP, one dose CCA
  joint swelling: certain improvements in joint swelling
[8]; CCA 50 mg/kgd
  weight of thymus: 14.3 ± 3.9
[8]; d20, CCA 50 mg/kgd
  Degree of Swelling, non-injected foot: 0.41 ± 0.22 mL
[8]; d24, CCA 50 mg/kgd
  Degree of Swelling, non-injected foot: 0.14 ± 0.15 mL
[8]; d28, CCA 50 mg/kgd
  Degree of Swelling, non-injected foot: 0.05 ± 0.02 mL
[9]; d3, CCA 50 mg/kgd
  Degree of swelling, injected foot: 0.94 ± 0.17
[9]; d5, CCA 50 mg/kgd
  Degree of swelling, injected foot: 0.67 ± 0.18
[9]; d7, CCA 50 mg/kgd
  Degree of swelling, injected foot: 0.63 ± 0.18

## O=P1(N(CCCl)CCCl)NCCCO1 (centres unmarked) [CP, Cyclophosphamide]
[10]; CP (15 μg/ml, 48, by row order of Table 43)
  Result of chromosome aberration test: + +
[10]; CP (60.0 μg/ml, 24, by row order of Table 43)
  Result of chromosome aberration test: + +
[10]; [16]
  Deformation (types): g, p, b, r, t, f
  Deformation Rate: 44.0%
[10]; S9−, CP 15 μg/ml, incubation 48
  Deformation Rate: 34.5%
[11]
  Degree of ear swelling: 28.1 ± 7.2
[12]
  Quantity of Ig M (A value): 0.41 ± 0.10
  Weight of Spleen: 56.6 +11.5
  weight of thymus: 6.2 ± 4.7
[13]
  Ig M (A), acceptor mice: 0.53 ± 0.03^ΔΔ
  Rate of inhibition: 24.3

## O=P1(N(CCCl)CCCl)NCCCO1 (centres unmarked) [CTX, Cytoxan]
[14]
  MPCE % ± SD: 41.37 ± 10.29%

## COc1ccc2c(c1)c(CC(=O)O)c(C)n2C(=O)c1ccc(Cl)cc1 [IM, Indomethacin]
[1]; 2 mg/kg/d oral
  Degree of Swelling Day 1: 0.52
  Degree of Swelling Day 3: 0.57
  Degree of Swelling Day 5: 0.34
  Degree of Swelling Day 7: 0.30
[5]
  abdominal cavity macrophage PGE2 release: effective in PGE2 release

## CO[C@@]12[C@H](COC(N)=O)C3=C(C(=O)C(C)=C(N)C3=O)N1C[C@@H]1N[C@@H]12 [MMC, Mitomycin C]
[10]
  Deformation (types): g, b, p, t, f
  Deformation Rate: 79.5%

## CC(=O)Oc1ccccc1C(=O)O [acetosalicylic acid]
[15]
  malformation in appearance (harelip, split tongue, short body, abnormal limbs): 4.4%
[15]; P<0.01
  deformity rate in skeletal system: 69.5%
[15]; P<0.01 and P<0.05
  growth of embryo rats vs negative control: showed differences in the body weight and length of embryos
[15]; day 9 to 11, P<0.01
  absorptive embryo rate, dead embryo rate, survival rate vs negative control: much higher absorptive embryo rate, and dead embryo rate, and lower survival rate
